The results in this text go back to ChEMBL document CHEMBL1154774, “Neglected tropical diseases: multi-target-directed ligands in the search for novel lead candidates against Trypanosoma and Leishmania” (J Med Chem, 2009).

The nature of data set [1]: Selectivity index, ratio of cytotoxicity against mammalian cells to IC50 for Trypanosoma brucei rhodesiense. In kind it is toxicity, cell-based. To be noted: read-out: Selectivity Index.
Another data set relates to Trypanosoma cruzi. Description: Antitrypanosomal activity against Trypanosoma cruzi Tulahuen 2. In kind it is functional, organism-based.
The target of the next data set is Trypanothione reductase (Trypanosoma cruzi, UniProt P28593). Description: Inhibition of Trypanosoma cruzi trypanothione reductase.
Data set [2] is described as follows: Selectivity index, ratio of cytotoxicity against mammalian cells to IC50 for Trypanosoma cruzi Tulahuen 2. In kind it is toxicity, cell-based. The settings on record: read-out: Selectivity Index.
The subject of another data set is Leishmania mexicana. The experiment in a line: Leishmanistatic activity against Leishmania mexicana. In kind it is functional.

Chain of Trypanothione reductase (P28593 whole entry): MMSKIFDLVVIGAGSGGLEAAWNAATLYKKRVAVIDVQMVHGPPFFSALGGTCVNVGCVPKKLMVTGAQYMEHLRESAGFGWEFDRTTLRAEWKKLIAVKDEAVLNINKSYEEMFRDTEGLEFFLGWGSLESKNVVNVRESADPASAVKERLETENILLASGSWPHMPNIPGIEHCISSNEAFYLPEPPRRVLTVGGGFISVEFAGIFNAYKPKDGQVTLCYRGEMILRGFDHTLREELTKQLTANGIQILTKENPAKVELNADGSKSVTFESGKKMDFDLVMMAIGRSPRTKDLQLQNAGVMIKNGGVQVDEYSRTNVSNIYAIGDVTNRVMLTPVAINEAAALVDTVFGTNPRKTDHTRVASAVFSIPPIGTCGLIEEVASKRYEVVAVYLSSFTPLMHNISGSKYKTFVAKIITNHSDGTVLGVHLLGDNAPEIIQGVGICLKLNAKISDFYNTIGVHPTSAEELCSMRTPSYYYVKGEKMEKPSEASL

In the case of `O=C1C=C(Oc2ccccc2)C(=O)c2ccccc21`, in data set [1], the selectivity ratio was 74.

With `NC(=S)N/N=C/c1ccc(OCc2ccc3no[n+]([O-])c3c2)cc1`, the results for the IC50 in the data set on Trypanosoma cruzi and against Trypanothione reductase were 15 µM and 43 µM, respectively. Moreover, the selectivity ratio in data set [2] worked out at 27.

Turning to `C/C(=N/Nc1ccccn1)[C@H]1CC[C@H]2[C@@H]3CC[C@H]4C[C@@H](O)CC[C@]4(C)[C@H]3CC[C@]12C`, in the data set with Leishmania mexicana, the “growth inhibition (GI)” value is 39%.

As usually defined, the IC50 is the concentration that gives 50% inhibition. Read a low IC50 as inhibition by little substance.
